# Measured values as given in PMC9515143, “Phosphorylation of Jhd2 by the Ras-cAMP-PKA(Tpk2) pathway regulates histone modifications and autophagy” (Nature Communications, 2022).
# Tests used:
# H3K4me1 and H3K4me2 = test: Western blot of H3K4me1 and H3K4me2 in yeast cells treated with glucose; type: cell-based, budding yeast (Saccharomyces cerevisiae); conditions: WT cells, different glucose concentrations, 0.5 hr
# Procedure: To examine the effect of glucose on histone modifications, we grew yeast cells in 2% glucose-containing medium (YPD) until log phase. Cells were collected and then grown in the medium containing different concentrations of glucose for 0.5 hr.
# (§1) To examine the effect of glucose on histone modifications, yeast cells were grown in 2% glucose-containing YPD (Yeast Extract Peptone Dextrose) medium until OD600 of 0.7–1.0. Cells were then collected, washed and resuspended in YP medium for 3 hr followed by treatment with different concentrations of glucose for 0.5 hr. For 1NM-PP1 (MCE, HY-13804) treatment, cells were grown in 2% YPD until OD600 of 0.7–1.0. Cells were then treated with 25 μM 1NM-PP1 for 0.5 hr. For FBP and pyruvate treatment, cells were pre-treated with Zymolase (Mpbio, 08320921) to increase the permeability. In brief, cells were grown in YPD medium until OD600 of 0.7–1.0, centrifuged and resuspended in 1 ml SB buffer (100 mM Sorbitol, 20 mM Tris pH 7.4). 10 μl Zymolase was then added and incubated at 30 °C for 15 min. The spheroplasts were washed and cultured in YPD medium containing different concentrations of FBP and pyruvate for 3 hr.
# Cells were grown in 5 ml YPD or selective medium until OD600 of 0.7–1.0. […] The protein bands were visualized using the ECL Chemiluminescence Detection Kit (Bio-Rad, 170–5061) and quantified with Image J software (v.1.8.0).
# H2Bub = test: Western blot of H2B monoubiquitination (H2Bub) after glucose; type: cell-based, budding yeast (Saccharomyces cerevisiae); conditions: for H2Bub/H2B: 0.5 hr
# Procedure: as §1
# (§2) Cells were grown in 5 ml YPD or selective medium until OD600 of 0.7–1.0. Cells were harvested and lysed in alkaline lysis buffer (2 M NaOH, 8% 2-mercaptoethanol). After centrifugation, the protein pellet was resuspended in 150 μl 2×SDS-sample buffer. Protein samples were separated by 8–15% SDS-PAGE and transferred to PVDF membrane. The blots were probed with primary antibodies followed by incubation with horseradish peroxidase-labelled IgG secondary antibodies. The protein bands were visualized using the ECL Chemiluminescence Detection Kit (Bio-Rad, 170–5061) and quantified with Image J software (v.1.8.0).
# Supplementary Fi g . […] WT (a) and H2B-F LA G cel ls (b) wer e grown in YPD medium until OD600 of 0.7.
# Cells were th en tr eat ed with YP medium supplement ed with differen t concentrations of glucos e for 0.5 hr. C ells were h ar vested an d the ex tract ed histones w er e anal yz ed by Western blots with indicat ed ant ibodies. To d et ect H2B monoubiquitination, H2B-F LAG strain w as used and d et ect ed with anti -F LAG ant ibody. Th e upper bands ar e monoubiquitinat ed H2B-F LAG. c E ff e c t of gl ucose on histone modifications in WT and ubp8∆ ubp10∆ mutant. WT and ubp8∆ ubp10∆ mut ant w er e gro wn in YPD medium unti l OD600 of 0.7. Cells wer e th en treated with YP medium supplem ent ed with di fferent con cen tr ations of gl u cos e fo r 0.5 hr. d Gluco se has no effect on the activit y of C O M PA S S . Spp1-TA P cells wer e grown in YPD medium until OD600 of 1.5. Cells were h arv est ed and then treat ed with YP + 0.05% glucos e and YP + 4% gl u cos e for 0.5 hr. Spp1-cont aining COMPASS (Spp1-CBP ) was then p urifi ed by tand em affinit y puri fi cati on ( TA P ) . Th e in vitro hi stone meth yltransferase assa y was p er form ed wit h purifi ed C O M PA S S and in vitro assembl ed nucl eosom es. e E ff e c t of the m TO R pathwa y on H3K4 meth ylation. […]
# For Supplem ent ar y Fi g. 1b, e-g, i-k, d at a r ep res ent means ± SEM; n=3 i ndependent ex perim ents. For Supplem entar y Fi g. 1c, d ata represent means ± SEM; n=4 independent ex periments. Tw o -sided t-tests were used for statistical analysis.
# H3K14ac = test: Western blot of H3K14ac (glucose, mutants); type: cell-based, budding yeast (Saccharomyces cerevisiae)
# Procedure: as §1
# as §2, with “The blots were probed with primary antibodies followed by incubation with horseradish peroxidase-labelled IgG secondary antibodies.” left out
# Jhd2 phosphorylation = Jhd2 phosphorylation in cells at different glucose concentrations; type: cell-based, budding yeast (Saccharomyces cerevisiae); conditions: 0.05%, 0.5%, 2% glucose, WT, Jhd2-S321A, S340A and tpk2Δ
# Procedure: as §1
# as §2, with “The blots were probed with primary antibodies followed by incubation with horseradish peroxidase-labelled IgG secondary antibodies.” left out
# PKA subunits = test: Expression of PKA subunits (Tpk1, Tpk2, Tpk3, Bcy1) after glucose, Western blot; type: cell-based, budding yeast (Saccharomyces cerevisiae); conditions: for Tpk2/GAPDH / Tpk3/GAPDH: normalized to Tpk1/GAPDH at same glucose; for Bcy1/GAPDH: normalized to Bcy1/GAPDH at 0.05% glucose
# Procedure: as §2
# Supplementary Fi g . 11 Analysis of PKA subunits subcellular localization, expression and Bcy1 dissociation kinetics. […]
# For Supplem ent ar y Fi g. 11 b, dat a r ep res ent m ean s ± SEM; n=3 independent ex perim ents. Tw o -sid ed t-t ests were us ed for statistical
# Jhd2 = test: In vitro demethylase assay, Jhd2 purified from cells grown in increasing glucose; type: biochemical, budding yeast (Saccharomyces cerevisiae); conditions: Jhd2 from cells grown in 0.05%, 0.5%
# Procedure: We also purified unphosphorylated Jhd2 from tpk2Δ mutant (Jhd2 tpk2Δ) and performed in vitro demethylase assay. […] We also treated WT Jhd2 with λ phosphatase to remove its phosphorylation and then used this dephosphorylated Jhd2 for in vitro demethylase assay. […] Furthermore, we purified Jhd2 from cells grown in increasing glucose concentrations (0.05%, 0.5%, 2%) and performed in vitro demethylase assay.
# The reaction was quenched by adding 2×SDS-PAGE loading buffer and incubated at 95 °C for 10 min. Samples were spotted to PVDF membrane followed by dot blots with indicated antibodies.
structure (smiles),measurement,setting,value
OC[C@H]1OC(O)[C@H](O)[C@@H](O)[C@@H]1O (stereo partly shown) [glucose],H3K4me1 and H3K4me2 level,H3K4me1 and H3K4me2,had no effect on H3K4me1 and H3K4me2
same,H2Bub/H2B,"H2Bub; 0.5% glucose, relative to 0.05% glucose = 1, replicate 1",1.541
same,H2Bub/H2B,"H2Bub; 0.5% glucose, relative to 0.05% glucose = 1, replicate 2",1.389
same,H2Bub/H2B,"H2Bub; 0.5% glucose, relative to 0.05% glucose = 1, replicate 3",1.9778
same,H2Bub/H2B,"H2Bub; 1% glucose, relative to 0.05% glucose = 1, replicate 1",1.812
same,H2Bub/H2B,"H2Bub; 1% glucose, relative to 0.05% glucose = 1, replicate 2",3.264
same,H2Bub/H2B,"H2Bub; 1% glucose, relative to 0.05% glucose = 1, replicate 3",4.024
same,H2Bub/H2B,"H2Bub; 2% glucose, relative to 0.05% glucose = 1, replicate 1",2.484
same,H2Bub/H2B,"H2Bub; 2% glucose, relative to 0.05% glucose = 1, replicate 2",4.332
same,H2Bub/H2B,"H2Bub; 2% glucose, relative to 0.05% glucose = 1, replicate 3",3.575
same,H2Bub/H2B,"H2Bub; 4% glucose, relative to 0.05% glucose = 1, replicate 1",3.885
same,H2Bub/H2B,"H2Bub; 4% glucose, relative to 0.05% glucose = 1, replicate 2",5.306
same,H2Bub/H2B,"H2Bub; 4% glucose, relative to 0.05% glucose = 1, replicate 3",5.56
same,H2Bub level,"H2Bub; H2B-FLAG cells, glucose 0.5 hr, Western blot",induced H2Bub
same,H3K14ac level,"H3K14ac; WT cells, glucose 0.5 hr",induced H3K14ac
same,"H3K14ac level, WT versus Jhd2-S321A, S340A and tpk2Δ",H3K14ac; glucose,"increased in response to glucose in WT but not in Jhd2-S321A, S340A and tpk2Δ mutants"
same,Jhd2 phosphorylation in response to glucose,Jhd2 phosphorylation,"Jhd2 phosphorylation was elevated when the concentration of glucose was increased from 0.05 to 2% in WT but not in Jhd2-S321A, S340A and tpk2Δ mutants"
same,Tpk2/GAPDH,"PKA subunits; 0.05% glucose, replicate 1",1.627
same,Tpk3/GAPDH,"PKA subunits; 0.05% glucose, replicate 1",0.4263
same,Tpk2/GAPDH,"PKA subunits; 0.05% glucose, replicate 2",1.616
same,Tpk3/GAPDH,"PKA subunits; 0.05% glucose, replicate 2",0.1439
same,Tpk2/GAPDH,"PKA subunits; 0.05% glucose, replicate 3",1.728
same,Tpk3/GAPDH,"PKA subunits; 0.05% glucose, replicate 3",0.2447
same,expression of PKA subunits,"PKA subunits; 0.05%, 0.5%, 2% glucose, Western blot",not significantly altered by glucose
same,Bcy1/GAPDH,"PKA subunits; 0.5% glucose, replicate 1",0.8311
same,Bcy1/GAPDH,"PKA subunits; 0.5% glucose, replicate 2",0.7213
same,Bcy1/GAPDH,"PKA subunits; 0.5% glucose, replicate 3",1.191
same,Tpk2/GAPDH,"PKA subunits; 0.5% glucose, replicate 1",1.363
same,Tpk3/GAPDH,"PKA subunits; 0.5% glucose, replicate 1",0.4332
same,Tpk2/GAPDH,"PKA subunits; 0.5% glucose, replicate 2",1.712
same,Tpk3/GAPDH,"PKA subunits; 0.5% glucose, replicate 2",0.3492
same,Tpk2/GAPDH,"PKA subunits; 0.5% glucose, replicate 3",1.416
same,Tpk3/GAPDH,"PKA subunits; 0.5% glucose, replicate 3",0.1641
same,Bcy1/GAPDH,"PKA subunits; 2% glucose, replicate 1",1.059
same,Bcy1/GAPDH,"PKA subunits; 2% glucose, replicate 2",0.8633
same,Bcy1/GAPDH,"PKA subunits; 2% glucose, replicate 3",0.977
same,Tpk2/GAPDH,"PKA subunits; 2% glucose, replicate 1",1.492
same,Tpk3/GAPDH,"PKA subunits; 2% glucose, replicate 1",0.565
same,Tpk2/GAPDH,"PKA subunits; 2% glucose, replicate 2",1.634
same,Tpk3/GAPDH,"PKA subunits; 2% glucose, replicate 2",0.1809
same,Tpk2/GAPDH,"PKA subunits; 2% glucose, replicate 3",1.419
same,Tpk3/GAPDH,"PKA subunits; 2% glucose, replicate 3",0.2075
same,phosphorylation level and demethylase activity of Jhd2 purified from cells in 2% glucose versus 0.05% glucose,Jhd2,higher phosphorylation level but lower demethylase activity
